Results published in ChEMBL document CHEMBL1201862, “PubChem BioAssay data set” (2004).
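Results reflect a 48-hour exposure of cells in 96-well plates to compound at five concentrations. GI50 = concentration required for 50% inhibition of growth.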 The source made the active and inactive calls. Cut-off read from the data, not from the text of the source: active = GI50 up to about 1.1 µM and inactive = higher.

Tests used:
Assay in all cases: growth of human tumour cells (NCI), 48 h
KM-20L2 = test system: KM-20L2
RXF 631 = test system: RXF 631
SNB-78 = test system: SNB-78
LXFL 529 = test system: LXFL 529
XF498 = test system: XF498
DMS-273 = test system: DMS-273
HOP-18 = test system: HOP-18
DMS-114 = test system: DMS-114
DLD-1 = test system: DLD-1

| Compound | GI50 (KM-20L2) | GI50 (RXF 631) | GI50 (SNB-78) | GI50 (LXFL 529) | GI50 (XF498) | GI50 (DMS-273) | GI50 (HOP-18) | GI50 (DMS-114) | GI50 (DLD-1) |
| --- | --- | --- | --- | --- | --- | --- | --- | --- | --- |
| COc1ccc(CNc2nc3ccc(C(F)(F)F)cc3nc2-c2ccccc2)cc1OC | 47.6 µM (inactive) | 16.7 µM (inactive) | > 100 µM (inactive) | 43.4 µM (inactive) | 13.2 µM (inactive) | 35.1 µM (inactive) | > 100 µM (inactive) |  |  |
| C=CCSC[C@H](NC(=O)COc1ccccc1)C(=O)NC(C(=O)OCc1ccc([N+](=O)[O-])cc1)=C(C)C | > 100 µM (inactive) | 90.8 µM (inactive) | 63.2 µM (inactive) | 36.1 µM (inactive) |  | 50.4 µM (inactive) | > 100 µM (inactive) | 45.3 µM (inactive) | > 100 µM (inactive) |
| CCCCCCCCCCCCCCCCCC(CCCCCCCCCCCCCCCCC)OP(=O)(O)O | > 100 µM (inactive) |  | > 100 µM (inactive) | > 100 µM (inactive) |  | > 100 µM (inactive) | > 100 µM (inactive) | > 100 µM (inactive) |  |
| CC(N)Cc1cccc(C(F)(F)F)c1 (centres undefined) | > 100 µM (inactive) | > 100 µM (inactive) | > 100 µM (inactive) | > 100 µM (inactive) |  | > 100 µM (inactive) | > 100 µM (inactive) | > 100 µM (inactive) | > 100 µM (inactive) |
| C[N+](C)(C)CC1CCCCC1=O (centres undefined) | 2 µM (inactive) |  |  |  |  | 71.3 µM (inactive) | 16.3 µM (inactive) | 36.9 µM (inactive) | 19.8 µM (inactive) |
| CC(=O)C1=C(O)C2C3c4c[nH]c5cccc(c45)CC3C(C)(C)N2C1=O (centres undefined) | 31.6 µM (inactive) |  | > 100 µM (inactive) | 78.3 µM (inactive) | 51.4 µM (inactive) | 27.5 µM (inactive) | 21.2 µM (inactive) | 20.4 µM (inactive) | 40.8 µM (inactive) |
| CCC(C)(O)c1cn(-c2ccc(S(=O)(=O)O)cc2)nn1 (centres undefined) | > 100 µM (inactive) | > 100 µM (inactive) | > 100 µM (inactive) | > 100 µM (inactive) | > 100 µM (inactive) | > 100 µM (inactive) | > 100 µM (inactive) | > 100 µM (inactive) | > 100 µM (inactive) |
| O=C(/C=C/c1ccccc1)CC(=O)CCC(=O)Nc1ccc(Cl)cc1 | 9.73 µM (inactive) |  | > 100 µM (inactive) | 6.75 µM (inactive) |  | 52.7 µM (inactive) | > 100 µM (inactive) | 57 µM (inactive) | 29.2 µM (inactive) |
| COc1ccc2c(c1)Cc1c-2[nH]c2cc3c(cc2c1=O)OCO3 | 14.7 µM (inactive) |  | 8.83 µM (inactive) | 19.5 µM (inactive) | 15 µM (inactive) | 7.67 µM (inactive) | 17.5 µM (inactive) | 4.07 µM (inactive) | 13.9 µM (inactive) |
| [O-]c1c2c(nn1-c1ccccc1)c1ccccc1c[n+]2Cc1ccccc1 | > 100 µM (inactive) | > 100 µM (inactive) | > 100 µM (inactive) | > 100 µM (inactive) | > 100 µM (inactive) | > 100 µM (inactive) | > 100 µM (inactive) | > 100 µM (inactive) | > 100 µM (inactive) |
| Cn1c2ccccc2c2cc(-c3ccccc3)c3c(c21)C(=O)C=CC3=O |  | 30.3 µM (inactive) | > 42.1 µM (inactive) | 6.68 µM (inactive) | 17.8 µM (inactive) | 19.7 µM (inactive) |  | 9.38 µM (inactive) | 13.6 µM (inactive) |
| c1ccc(OC2=NC3=S(S2)SC(Oc2ccccc2)=N3)cc1 | 22.3 µM (inactive) | 25.1 µM (inactive) | 20.5 µM (inactive) |  | 15.7 µM (inactive) | 25.8 µM (inactive) |  | 19.9 µM (inactive) | 16.5 µM (inactive) |
| Cc1ccc2c(c1)c(=O)c1c(NCCN(C)C)ccc3nnn2c31 | 3.03 µM (inactive) |  | 6.22 µM (inactive) | 3.48 µM (inactive) |  |  | 9.93 µM (inactive) | 5.26 µM (inactive) | 2.88 µM (inactive) |
| C[N+]1(CCNP(=S)(NCC[N+]2(C)Cc3c(ccc4c3OCO4)C3C2c2cc4c(cc2C[C@@H]3O)OCO4)NCC[N+]2(C)Cc3c(ccc4c3OCO4)C3C2c2cc4c(cc2C[C@@H]3O)OCO4)Cc2c(ccc3c2OCO3)C2C1c1cc3c(cc1C[C@H]2O)OCO3 (some centres undefined) | < 0.00191 µM (active) |  | < 0.00191 µM (active) | < 0.00191 µM (active) | < 0.00191 µM (active) | < 0.00191 µM (active) | < 0.00191 µM (active) |  | < 0.00191 µM (active) |
| COC(=O)c1cc2ccccc2c2nc3ccccc3c(Cl)c12 | 11.4 µM (inactive) | > 100 µM (inactive) |  | > 100 µM (inactive) | > 100 µM (inactive) | > 100 µM (inactive) |  | > 100 µM (inactive) | > 100 µM (inactive) |
| Cc1ccc(NC(=O)CCc2cc(C(C)(C)C)nc(S)n2)cc1C | > 100 µM (inactive) |  | > 100 µM (inactive) | > 100 µM (inactive) | > 100 µM (inactive) | > 100 µM (inactive) | > 100 µM (inactive) | > 100 µM (inactive) |  |
| CC(=O)Nc1ccc(C(=O)NN2C(=O)C(Cl)C2c2ccccc2)cc1 (centres undefined) | > 100 µM (inactive) |  | > 100 µM (inactive) | > 100 µM (inactive) |  | > 100 µM (inactive) |  |  | > 100 µM (inactive) |
| CN1CCN(c2nc(N)c(Br)c(Cl)n2)CC1 | > 100 µM (inactive) |  | > 100 µM (inactive) | > 100 µM (inactive) | > 100 µM (inactive) | > 100 µM (inactive) |  | > 100 µM (inactive) | > 100 µM (inactive) |
| C[C@@]12[Se]c3ccccc3[C@]1(C)[Se]c1ccccc12 | > 100 µM (inactive) |  |  | > 100 µM (inactive) |  | 3.61 µM (inactive) | > 100 µM (inactive) | 2.12 µM (inactive) | > 100 µM (inactive) |
| CC(O)CCCOC(c1ccccc1)(c1ccccc1)c1ccccc1 (centres undefined) | 10.4 µM (inactive) |  | 14.7 µM (inactive) | 14.7 µM (inactive) | 14.7 µM (inactive) |  |  | 13.2 µM (inactive) | 17.2 µM (inactive) |
| Nc1ccn(CCO)c(=O)n1 | > 100 µM (inactive) |  | > 100 µM (inactive) | > 100 µM (inactive) |  | > 100 µM (inactive) | > 100 µM (inactive) | > 100 µM (inactive) | > 100 µM (inactive) |
| CC1=CC[C@@H](C(C)(C)O)C[C@@H]1O | > 5000 µM (inactive) | > 5000 µM (inactive) | > 5000 µM (inactive) | > 5000 µM (inactive) | > 5000 µM (inactive) |  |  | > 5000 µM (inactive) | > 5000 µM (inactive) |
| Cc1cc(NCCCCCCNc2cc(C)nc3cc(N(C)C)ccc23)c2ccc(N(C)C)cc2n1 |  | > 100 µM (inactive) |  |  | 13.7 µM (inactive) | 3.64 µM (inactive) |  |  | 39.3 µM (inactive) |
| O=C1C(Cl)C(c2cccc([N+](=O)[O-])c2)N1n1cnc2ccccc2c1=O (centres undefined) | 85.7 µM (inactive) |  |  | 92.3 µM (inactive) |  | > 100 µM (inactive) | 11 µM (inactive) | 86.9 µM (inactive) | > 100 µM (inactive) |
